{"source": "paper PMC4145680", "about": "(mBio, 2014)", "molecular_target": "E. coli SQR (pFAS, SdhABCD^+) (Escherichia coli, UniProt P0AC41)", "sequence (P0AC41 whole entry)": "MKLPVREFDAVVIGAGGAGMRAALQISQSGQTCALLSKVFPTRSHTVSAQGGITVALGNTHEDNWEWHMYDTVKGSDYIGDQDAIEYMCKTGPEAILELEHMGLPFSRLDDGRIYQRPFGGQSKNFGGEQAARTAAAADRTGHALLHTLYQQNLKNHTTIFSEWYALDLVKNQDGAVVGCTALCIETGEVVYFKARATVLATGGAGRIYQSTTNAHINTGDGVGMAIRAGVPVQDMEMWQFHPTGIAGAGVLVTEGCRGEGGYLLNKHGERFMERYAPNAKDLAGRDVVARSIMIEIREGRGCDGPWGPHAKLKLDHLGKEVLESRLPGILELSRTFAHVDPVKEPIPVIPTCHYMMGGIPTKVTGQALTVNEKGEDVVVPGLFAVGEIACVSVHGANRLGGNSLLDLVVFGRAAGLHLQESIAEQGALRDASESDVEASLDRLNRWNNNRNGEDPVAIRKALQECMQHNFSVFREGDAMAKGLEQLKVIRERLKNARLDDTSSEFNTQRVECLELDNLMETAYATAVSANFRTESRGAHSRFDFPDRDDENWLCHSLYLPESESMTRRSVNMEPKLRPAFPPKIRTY", "sequence (P07014 whole entry partner)": "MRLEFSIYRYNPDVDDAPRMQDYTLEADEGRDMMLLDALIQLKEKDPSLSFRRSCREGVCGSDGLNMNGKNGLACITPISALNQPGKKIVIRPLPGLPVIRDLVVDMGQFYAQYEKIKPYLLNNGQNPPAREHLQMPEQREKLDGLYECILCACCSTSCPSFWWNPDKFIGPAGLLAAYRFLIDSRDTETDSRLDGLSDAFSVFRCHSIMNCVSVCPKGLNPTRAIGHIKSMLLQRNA", "sequence (P69054 whole entry partner)": "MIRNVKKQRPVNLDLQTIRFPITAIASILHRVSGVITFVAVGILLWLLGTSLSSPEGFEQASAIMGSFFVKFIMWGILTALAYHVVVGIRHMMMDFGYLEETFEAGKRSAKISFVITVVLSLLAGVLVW", "sequence (P0AC44 whole entry partner)": "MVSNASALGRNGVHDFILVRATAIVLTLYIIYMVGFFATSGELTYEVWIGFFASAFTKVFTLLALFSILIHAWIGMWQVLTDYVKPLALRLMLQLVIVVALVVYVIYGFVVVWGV", "assay": "PES-DCIP assay and Clark O2 electrode, IMVs", "format": "biochemical", "conditions": "pH 7.5 (50 mM MOPS)"}
{"compound": "O=C(O)CCC(=O)O", "note": "[succinate]", "values": [{"measurement": "PES-DCIP assay and Clark O2 electrode, IMVs", "value": "E. coli strains overexpressing either the SQR operon (pFAS, SdhABCD^+)"}]}
